Source: publication PMC11111404, “Discovery of potent small-molecule inhibitors of lipoprotein(a) formation” (Nature, 2024)
Values joined by “and” are separate entries in the source; they are usually repeats but may differ in a detail not shown here. Equal entries are not always repeated. Where two headings read alike, the source gives them in different places.

Tests used:
plasmin activity = biological target: T1, plasmin activity (Rattus norvegicus, UniProt Q01177); assay: Rat plasma plasmin (plasminogen) activity ex vivo after oral dosing; assay type: in vivo; conditions: for PLG activity (Vmax), Plasminogen (mean of replicates) / PLG activity (Vmax), Replicate 1 / PLG activity (Vmax), Replicate 2 / PLG activity % change from Vehicle: rat, individual animals; for PLG activity % change from Vehicle: Vehicle mean 267.0
T1 construct: Plasma samples were collected via the abdominal aorta; from tissue; host or cells: Citrated plasma of orally dosed male Sprague Dawley rats
T1 sequence (Q01177 20-812 limits assumed): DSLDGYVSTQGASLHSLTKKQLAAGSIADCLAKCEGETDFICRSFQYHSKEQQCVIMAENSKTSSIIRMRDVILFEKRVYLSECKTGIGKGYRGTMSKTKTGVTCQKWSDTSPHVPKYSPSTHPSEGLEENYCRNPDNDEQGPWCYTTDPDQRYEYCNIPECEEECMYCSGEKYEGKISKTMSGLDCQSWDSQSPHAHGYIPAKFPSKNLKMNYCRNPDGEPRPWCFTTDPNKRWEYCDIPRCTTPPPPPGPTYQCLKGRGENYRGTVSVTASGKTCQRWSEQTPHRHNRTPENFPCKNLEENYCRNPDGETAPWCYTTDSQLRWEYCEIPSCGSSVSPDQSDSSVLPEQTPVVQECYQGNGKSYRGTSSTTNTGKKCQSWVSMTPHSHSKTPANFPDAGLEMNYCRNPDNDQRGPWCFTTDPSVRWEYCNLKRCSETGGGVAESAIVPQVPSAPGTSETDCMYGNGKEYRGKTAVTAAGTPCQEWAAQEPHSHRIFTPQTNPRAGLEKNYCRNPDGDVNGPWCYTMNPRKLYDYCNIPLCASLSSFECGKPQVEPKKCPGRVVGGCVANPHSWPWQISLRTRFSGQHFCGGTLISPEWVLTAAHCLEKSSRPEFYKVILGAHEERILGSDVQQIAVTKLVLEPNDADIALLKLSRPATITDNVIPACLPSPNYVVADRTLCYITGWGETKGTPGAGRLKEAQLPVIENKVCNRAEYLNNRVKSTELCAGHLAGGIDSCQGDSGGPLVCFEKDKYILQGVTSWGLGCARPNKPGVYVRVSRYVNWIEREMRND
Method: Male Sprague Dawley rats (Charles River, average body weight 310 g, aged eight to nine weeks old) were housed in cages with a standard light cycle (12-h light, 12-h dark), at room temperature (22 ± 4 °C), with a relative humidity of 30–70%. Rats were identified by numbers on the cage cards. After arrival, rats were fed on a normal diet (Harlan Teklad diet 2014) and randomized to treatment groups (n = 5 per group) by baseline plasma plasminogen concentration and activity using a BRAT. LSN3441732 and LY3473329 were administered QD orally at three dose levels (3.7, 12.3 and 37 mg kg^−1; 3.2, 10.5 and 31.6 mg kg^−1 per dose, respectively) or vehicle (10 ml kg^−1, 1% HEC, 0.25% Tween-80, Antifoam) for four days. Terminal blood was drawn under general anaesthesia 24 h after the day-4 oral dose. Plasma samples were collected via the abdominal aorta into a premeasured anticoagulant BD Vacutainer used for blood collection (2.7 ml, buffered sodium citrate). The liver was flash frozen in liquid nitrogen. To measure plasminogen activity, 100 µl plasma per well was added to a 96-well plate (Corning) and the following were added to the indicated concentrations: 7.5 mM CaCl2 and 117 mM NaCl. Wells were mixed and warmed to 37 °C. Urokinase (Millipore) was added at 125 U per well and the plate was incubated at 37 °C for 4 min. The plasminogen substrate Chromogenix S-2251 (DiaPharma) was added to a concentration of 3.3 mM. The mixture was added and the plate was sealed and placed in a prewarmed plate reader, shaken, and the absorbance read every 30 s for 2 h. The maximum slope for each curve was determined and the percentage inhibition was calculated relative to untreated controls. Plasminogen protein was measured using ELISA kits for rat (Abcam ab157740) according to the manufacturer’s instructions. Plasminogen activity (percentage) and mass (µg ml^−1) in rat were analysed by ANOVA in JMP 16.1.0. The percentage reduction of plasminogen activity and mass for each treated group was compared with vehicle by Dunnett’s method.

Lp(a) = Lp(a) levels in cynomolgus monkeys; assay type: in vivo, cynomolgus monkey (Macaca fascicularis); set-up: key to Mean_pCFB_vs_Veh / Mean_pCFB_vs_Veh (Lp(a)): % change from pre-dose, treated group compared with vehicle; key to Mean_pCFB / Mean_pCFB (Lp(a)): % change in Lp(a) from before dosing; Lp(a): unit not given here; conditions: for Lp(a): Fig 3b raw data; for Mean_pCFB / Mean_pCFB_vs_Veh: Lp(a), female cynomolgus monkeys; for maximum decrease of median Lp(a) levels / %Lp(a) max decrease (dose, mg/kg): cynomolgus monkeys; for maximum decrease of median Lp(a) levels: after 5 days; for %Lp(a) max decrease (dose, mg/kg): 14 days dosing
Method: Female or male Chinese Macaca fascicularis cynomolgus monkeys (as described in the figure legends) of unspecified ages with body weight ranging from 2.0 kg to 5.0 kg were housed in cages with a standard light cycle (12-h light, 12-h dark) at room temperature (20–26 °C); the relative humidity ranged from 30% to 70%. Monkeys were given fruits, vegetables or dietary enrichment as a form of environmental enrichment, and various cage enrichment devices. Purina Lab diet 5048C was provided BID and individual monkeys were identified by cage card. The monkeys were randomized to treatment groups by body weight and baseline plasma Lp(a) concentration, as determined by a commercially available Randox assay (Randox LP2757), using a BRAT for the study. In an example cynomolgus monkey study in which 39 monkeys were prescreened for baseline Lp(a) levels, the average Lp(a) level was 350 ± 57 µg ml^−1 (range 53–1,667 µg ml^−1). Monkeys were dosed orally with vehicle (purified water) or compounds QD or BID for 14 days, at dose levels and frequencies as previously described for each compound. Plasma samples were collected on days before dosing to establish baseline Lp(a) and after the morning dose during the study. Lp(a) levels were measured by an investigator who was blinded to group allocation using the Randox assay, and were quantified relative to the calibrator series (Randox LP3404). Data were analysed in GraphPad Prism v.9.5.1. The Lp(a) percentage change from before dosing in non-human primates was analysed by repeated measures ANOVA in SAS v.9.4 (SAS). At each time point, the Lp(a) percentage change for each treated group was compared with vehicle by the Bonferroni method.

[1] = Pharmacokinetics in monkey plasma after oral dosing; assay type: in vivo; conditions: cynomolgus; for Cmax / Tmax: day 14; for AUC(0-t): day 14, read-out: AUC(0-96 hr)
[2] = 2mpk BID, Day 1, individual cynos
[3] = 2mpk BID, Day 3, individual cynos
[4] = 2mpk BID, Day 5, individual cynos
[5] = 2mpk BID, Day 9, individual cynos
[6] = 2mpk BID, Day 14, individual cynos
[7] = 10mpk BID, Day 1, individual cynos
[8] = 10mpk BID, Day 3, individual cynos
[9] = 10mpk BID, Day 5, individual cynos
[10] = 10mpk BID, Day 9, individual cynos
[11] = 10mpk BID, Day 14, individual cynos

Cl.Cl.O=C(Nc1cccc(C[C@H](C(=O)O)[C@H]2CCNC2)c1)Nc1cccc(C[C@H](C(=O)O)[C@H]2CCNC2)c1 [LSN3441732]
PLG activity (Vmax), Plasminogen (mean of replicates) (plasmin activity; dose 3.7 mpk, 3.7 mg/kg): 240.6 and 263.3 and 236.5 and 207.9 and 235.8
PLG activity (Vmax), Replicate 1 (plasmin activity; dose 3.7 mpk, 3.7 mg/kg): 239.342 and 259.606 and 234.747 and 204.985 and 233.598
PLG activity (Vmax), Replicate 2 (plasmin activity; dose 3.7 mpk, 3.7 mg/kg): 241.939 and 266.922 and 238.196 and 210.884 and 238.070
PLG activity % change from Vehicle (plasmin activity; dose 3.7 mpk, 3.7 mg/kg): -9.88% and -1.40% and -11.44% and -22.12% and -11.68%
PLG activity (Vmax), Plasminogen (mean of replicates) (plasmin activity; dose 12.3 mpk, 12.3 mg/kg): 282.2 and 249.5 and 239.5 and 205.0 and 186.8
PLG activity (Vmax), Replicate 1 (plasmin activity; dose 12.3 mpk, 12.3 mg/kg): 284.452 and 249.068 and 238.009 and 201.341 and 183.623
PLG activity (Vmax), Replicate 2 (plasmin activity; dose 12.3 mpk, 12.3 mg/kg): 279.877 and 249.884 and 240.921 and 208.639 and 189.912
PLG activity % change from Vehicle (plasmin activity; dose 12.3 mpk, 12.3 mg/kg): 5.68% and -6.57% and -10.32% and -23.23% and -30.05%
PLG activity (Vmax), Plasminogen (mean of replicates) (plasmin activity; dose 37 mpk, 37 mg/kg): 195.8 and 173.1 and 184.9 and 150.3 and 200.6
PLG activity (Vmax), Replicate 1 (plasmin activity; dose 37 mpk, 37 mg/kg): 217.532 and 172.649 and 184.379 and 149.241 and 196.980
PLG activity (Vmax), Replicate 2 (plasmin activity; dose 37 mpk, 37 mg/kg): 174.037 and 173.594 and 185.398 and 151.449 and 204.259
PLG activity % change from Vehicle (plasmin activity; dose 37 mpk, 37 mg/kg): -26.67% and -35.16% and -30.76% and -43.69% and -24.86%
plasma plasmin activity measured ex vivo (plasmin activity; rats treated orally at pharmacological doses): decreased plasma plasmin activity
pCFB (pct chng from baseline, Lp(a)) (Lp(a); [2]): -0.8715 pct and -9.178 pct and 9.115 pct and 2.958 pct and -14.9999 pct and -4.998 pct and -4.507 pct and 6.837 pct
Lp(a) (Lp(a); [2]): 66.699 and 27.339 and 53.349 and 76.924
pCFB (pct chng from baseline, Lp(a)) (Lp(a); [3]): -26.3908 pct and -7.214 pct and -20.0294 pct and -41.4028 pct and -34.8821 pct and 12.2337 pct and -15.3593 pct and -16.4032 pct
Lp(a) (Lp(a); [3]): 59.119 and 21.392 and 39.615 and 78.588
pCFB (pct chng from baseline, Lp(a)) (Lp(a); [4]): -60.4222 pct and -23.7562 pct and -53.193 pct and -73.9823 pct and -52.767 pct and 10.0362 pct and -38.056 pct and -25.4812 pct
Lp(a) (Lp(a); [4]): 43.266 and 19.069 and 21.3 and 64.577
pCFB (pct chng from baseline, Lp(a)) (Lp(a); [5]): -46.3414 pct and -22.6794 pct and -48.3056 pct and -58.1644 pct and -48.9556 pct and 33.2038 pct and -34.8562 pct and -42.8477 pct
Lp(a) (Lp(a); [5]): 45.501 and 14.625 and 28.878
pCFB (pct chng from baseline, Lp(a)) (Lp(a); [6]): -26.8256 pct and -20.2744 pct and -41.4618 pct and -48.6082 pct and -43.1214 pct and 61.8786 pct and -34.6787 pct and -24.6097 pct
Lp(a) (Lp(a); [6]): 24.162 and 45.625 and 19.292 and 39.381
Lp(a) (Lp(a); 2mpk BID, Day -1 (pre-dose), individual cynos): 76.499 and 27.63 and 59.314 and 80.73
Lp(a) (Lp(a); 2mpk BID, Day -14 (pre-dose), individual cynos): 63.195 and 23.549 and 48.322 and 88.666
pCFB (pct chng from baseline, Lp(a)) (Lp(a); [7]): 6.085 pct and 18.5121 pct and 11.2235 pct and -12.4022 pct and 3.527 pct and -18.0886 pct and 0.3688 pct and -16.5769 pct
Lp(a) (Lp(a); [7]): 42.107 and 61.295 and 35.316 and 53.315 and 65.761 and 52.068 and 17.81 and 84.78
pCFB (pct chng from baseline, Lp(a)) (Lp(a); [8]): -30.0594 pct and -45.1266 pct and -34.624 pct and -67.6349 pct and -34.8372 pct and -50.8715 pct and -17.9315 pct and -61.9012 pct
Lp(a) (Lp(a); [8]): 19.23 and 40.411 and 16.352 and 31.338 and 24.297 and 32.773 and 10.682 and 69.322
pCFB (pct chng from baseline, Lp(a)) (Lp(a); [9]): -74.5889 pct and -41.8647 pct and -61.4356 pct and -52.9091 pct and -78.302 pct and -39.7105 pct and -69.6086 pct and -32.2067 pct
Lp(a) (Lp(a); [9]): 12.826 and 33.59 and 11.492 and 22.573 and 16.289 and 30.322 and 6.608
pCFB (pct chng from baseline, Lp(a)) (Lp(a); [10]): -56.8372 pct and -40.6982 pct and -59.7007 pct and -36.5829 pct and -68.9989 pct and -34.2069 pct and -69.9581 pct and 8.689 pct
Lp(a) (Lp(a); [10]): 21.786 and 34.264 and 12.009 and 30.399 and 23.273 and 33.09 and 6.532
pCFB (pct chng from baseline, Lp(a)) (Lp(a); [11]): -44.94 pct and -47.7665 pct and -60.9759 pct and -27.3662 pct and -62.6383 pct and -7.387 pct and -32.53 pct and -7.053 pct
Lp(a) (Lp(a); [11]): 27.791 and 30.18 and 11.629 and 34.817 and 28.048 and 46.579 and 14.67
Lp(a) (Lp(a); 10mpk BID, Day -1 (pre-dose), individual cynos): 51.607 and 58.876 and 34.406 and 53.514 and 88.739 and 49.824 and 82.77 and 24.664
Lp(a) (Lp(a); 10mpk BID, Day -14 (pre-dose), individual cynos): 49.341 and 56.682 and 25.193 and 42.356 and 61.404 and 86.167 and 50.764 and 18.822
Mean_pCFB (Lp(a); 2mpk BID, day 1): -1.96
Mean_pCFB_vs_Veh (Lp(a); 2mpk BID, day 1): -1.99
Mean_pCFB (Lp(a); 2mpk BID, day 3): -18.68
Mean_pCFB_vs_Veh (Lp(a); 2mpk BID, day 3): -8.97
Mean_pCFB (Lp(a); 2mpk BID, day 5): -39.7
Mean_pCFB_vs_Veh (Lp(a); 2mpk BID, day 5): -22.16
Mean_pCFB (Lp(a); 2mpk BID, day 9): -33.62
Mean_pCFB_vs_Veh (Lp(a); 2mpk BID, day 9): -19.16
Mean_pCFB (Lp(a); 2mpk BID, day 14): -22.21
Mean_pCFB_vs_Veh (Lp(a); 2mpk BID, day 14): -17.15
Mean_pCFB (Lp(a); 10mpk BID, day 1): -0.92
Mean_pCFB_vs_Veh (Lp(a); 10mpk BID, day 1): -0.95
Mean_pCFB (Lp(a); 10mpk BID, day 3): -42.87
Mean_pCFB_vs_Veh (Lp(a); 10mpk BID, day 3): -33.16
Mean_pCFB (Lp(a); 10mpk BID, day 5): -56.33
Mean_pCFB_vs_Veh (Lp(a); 10mpk BID, day 5): -38.79
Mean_pCFB (Lp(a); 10mpk BID, day 9): -44.79
Mean_pCFB_vs_Veh (Lp(a); 10mpk BID, day 9): -30.33
Mean_pCFB (Lp(a); 10mpk BID, day 14): -36.33
Mean_pCFB_vs_Veh (Lp(a); 10mpk BID, day 14): -31.27
maximum decrease of median Lp(a) levels (Lp(a); 2 mg kg^−1 oral BID): 45%
%Lp(a) max decrease (dose, mg/kg) (Lp(a); 2 mg/kg BID): 40%
maximum decrease of median Lp(a) levels (Lp(a); 10 mg kg^−1 oral BID): 57%
%Lp(a) max decrease (dose, mg/kg) (Lp(a); 10 mg/kg BID): 56%
Cmax ([1]; oral 2 mg/kg): 754 ± 428 nM
Tmax ([1]; oral 2 mg/kg): 3.81 ± 2.14 h
AUC(0-t) ([1]; oral 2 mg/kg): 5.63 µM·h
Cmax ([1]; oral 10 mg/kg): 4380 nM
Tmax ([1]; oral 10 mg/kg): 2.06 ± 1.32 h
AUC(0-t) ([1]; oral 10 mg/kg): 22.2 µM·h
